# Marks after values point to notes of the source that are not given here.
# Legend:
# [1] = system: diaphysis tissue of the femur (cortical bone); assay: Bone alkaline phosphatase activity in cultured femoral diaphysis tissue pieces; type: cell-based, Wistar male rats; conditions: for Bone alkaline phosphatase activity: diaphysis tissue, mean ± SE
# Procedure: (§1) The femurs were extracted from rats (Wistar male rats; 4 to 5 weeks old) (purchased from Japan SLC Co., Ltd. and fed with solid Oriental yeast (MF)) under anesthesia with ether under a germfree condition. The femurs were each washed with 0.25 M sucrose solution, and then divided into the diaphysis (cortical bone) and metaphysis (cancellous bone). The bone tissue pieces were cultured in a culture medium (Dulbecco's modified culture medium containing 5% of glucose; serum-free medium) containing. β-cryptoxanthin, etc. at […] in an incubator filled with 5% CO2-95% air for 48 hours. β-cryptoxanthin used was “β-cryptoxanthin” of Extrasynthase Co., cycloheximide used was “Cycloheximide” of Sigma Co. Ltd., β-carotene was “β-carotene” of Sigma ? , xanthine was “Xanthine” of Sigma Co, Ltd., parathormone was “Parathormone” of Sigma Co. Ltd. and prostaglandin E2 was “Prostaglandin E2” of Sigma Co. Ltd. In the control, only the culture medium was used without β-cryptoxanthin or the like.
# The expression level of alkaline phosphatase, which is the most important enzyme for the acceleration of the calcification of bones, was examined. The tissue pieces cultured in the incubator were washed in 0.25 M sucrose solution, then pulverized in 3 ml of 65 mM barbital buffer (pH 7-4) and treated with ultrasonic waves. The resultant liquid was centrifuged. The supernatant, as the enzyme solution, was determined by a method of Walter ad Schutt in Method of Enzymatic Analysis, Vol. 1-2, p. 856, Academic Press, New York, 1965). Namely, this method was carried out as follows: p-nitrophenylphosphoric acid was used as the substrate. 0.05 ml of the enzyme solution was added to 2 ml of diethanolamine buffer (pH 9.8). After the incubation at 37° C. for 30 minutes, 10 ml of 0.05 N NaOH was added to the mixture. The absorbance (405 nm) was determined with a spectrophotometer to determine bone alkaline phosphatase activity of a bone remedy or a compound known to be effective for the bones.
# The bone component-increasing effect of β-cryptoxanthin was examined. The diaphysis and metaphysis tissue of the femur was cultured in the above-described culture medium containing β-cryptoxanthin ([…]) for 48 hours. Calcium level in the bone tissue, alkaline phosphatase activity (enzyme for accelerating the bone calcification) and the amount of deoxyribonucleic acid (DNA; index of number of cells in the bone tissue) were determined by the same methods as in Example 1. In each test group, the determination vas conducted 6 to 8 times and the results were represented by the average value and the standard error. The significant difference was determined by Student's t-test. The result was compared with that of the control. When P value was not higher than 0.01 (**) or not higher than 0.05 (*), the results were statistically significant.
# [2] = system: diaphysis tissue of the femur; assay: Bone resorption (PTH or prostaglandin E2): bone calcium level in cultured diaphysis tissue; type: cell-based, Wistar male rats
# Procedure: as §1
# (§2) Bone calcium level in the bone tissue was determined. After the culture in the incubator, the tissue pieces were washed with 0.25 M sucrose solution and dried and then the bone was weighed. Then concentrated nitric acid was added to the tissue pieces. After the incineration at 120° C. for 12 hours, the bone calcium level was determined with an atomic absorption photometer (“Perkin-Elmer 303” of Perkin-Elmer Co.).
# (§3) The bone mineral dissolution-inhibiting effect of β-cryptoxanthin was examined. […] PTH also has a pathophysiologic role on the expression of osteoporosis caused by the aging. It is known that prostaglandin E2 also causes physiologic bone mineral dissolution. The diaphysis or metaphysis tissue of the femur was cultured in the presence of 10^−7 M PTH or 10^−5 M prostaglandin E2 for 48 hours and then calcium level in the bone tissue was determined. In another experiment, the culture was conducted in the same manner as that described above in the coexistence of them and β-cryptoxanthin (10^−8 M to 10^−6 M) and then calcium level in the bone tissue was determined. In each test group, the determination was conducted 6 to 8 times and the results were represented by the average value and the standard error. The significant difference was determined by Student's t-test. The result was compared with that of the control. When P value was not higher than 0.01 (*) as compared with the control or it is not higher than 0.1 (#) as compared with that of prostaglandin E2, the results were statistically significant.
# [3] = system: metaphysis tissue of the femur; assay: Bone resorption (PTH or prostaglandin E2): bone calcium level in cultured metaphysis tissue; type: cell-based, Wistar male rats
# Procedure: as §1, §2, §3
# [4] = system: rats, femoral diaphysis tissue; assay: Oral administration to rats: bone calcium level in diaphysis tissue; type: in vivo, Wistar male rats; conditions: for Bone calcium level: diaphysis tissue
# Procedure: as §2
# (§4) A solution of β-cryptoxanthin in corn oil having one of three kinds of concentration (10, 25 and 50 μg/ml corn oil) was orally administered to rats (Wistar male rats; 4 to 5 weeks old) in an amount/100 g body weight with a probe once a day for 7 days. The rats were sacrificed 24 hours after the final administration. The femurs were excised. The muscles, etc. were taken out and each femur was divided into diaphysis and metaphysis to determine the bone components.
# (§5) Tests were conducted to examine whether the bone components are increased by the oral administration of β-cryptoxanthin to rats or not. β-cryptoxanthin was administered for 7 days (10, 25 or 50 μg/100 g body weight/day) and then calcium level in the bone tissue, determination of alkaline phosphatase activity (enzyme for the acceleration of the calcification of bones) and the amount of deoxyribonucleic acid (DNA: index of the number of the cells in the bone tissue) were determined by the same methods as those in Example 1. In each test group, the determination was conducted 6 times and the results were represented by the average value and the standard error. The significant difference was determined by Student's t-test. The result was compared with that of the control. When P value was not higher than 0.01 (*) as compared with the control, the results were statistically significant.
# [5] = system: rats, femoral metaphysis tissue; assay: Oral administration to rats: bone calcium level in metaphysis tissue; type: in vivo, Wistar male rats; conditions: for Bone calcium level: metaphysis tissue
# Procedure: as §2, §4, §5
# [6] = β-cryptoxanthin 10^−8 to 10^−6 M in the presence of PTH
# [7] = 10, 25 or 50 μg/100 g body weight/day, 7 days
# [8] = oral 10 μg/100 g body weight/day for 7 days
# [9] = oral 25 μg/100 g body weight/day for 7 days
# [10] = oral 50 μg/100 g body weight/day for 7 days
smiles,measurement,setting,value
CC1=C(/C=C/C(C)=C/C=C/C(C)=C/C=C/C=C(C)/C=C/C=C(C)/C=C/C2=C(C)C[C@@H](O)CC2(C)C)C(C)(C)CCC1 [β-cryptoxanthin],Effect on alkaline phosphatase activity in the diaphysis (in words),"[1]; 10^−7 to 10^−5 M, 48 h culture, vs control",significantly increased
same,Bone alkaline phosphatase activity,"[1]; Table 2 (protein synthesis inhibitor experiment), 10^−6 M (each agent), n=6",691.5 ± 11.2* nmol/min/mg protein
same,Bone alkaline phosphatase activity,"[1]; 10^−5 M, 48 h culture",644.6 ± 15.2** nmol/min/mg protein
same,Bone alkaline phosphatase activity,"[1]; 10^−6 M, 48 h culture",684.0 ± 17.7** nmol/min/mg protein
same,Bone alkaline phosphatase activity,"[1]; 10^−7 M, 48 h culture",604.2 ± 9.6* nmol/min/mg protein
same,Bone alkaline phosphatase activity,"[1]; 10^−8 M, 48 h culture",568.5 ± 9.5 nmol/min/mg protein
same,Bone alkaline phosphatase activity in diaphysis tissue increased by β-cryptoxanthin: change in the presence of cycloheximide (in words),[1]; β-cryptoxanthin 10^−6 M with cycloheximide,significantly lowered
same,Control of prostaglandin E2-caused reduction of calcium level in the bone tissue (in words),"[2]; diaphysis tissue, β-cryptoxanthin 10^−5 to 10^−6 M (so in the source) with prostaglandin E2 10^−5 M",completely controlled
same,Control of PTH-caused reduction of calcium level in the diaphysis tissue (in words),[2]; [6],significantly controlled
same,Control of prostaglandin E2-caused reduction of calcium level in the bone tissue (in words),"[3]; metaphysis tissue, β-cryptoxanthin 10^−5 to 10^−6 M (so in the source) with prostaglandin E2 10^−5 M",completely controlled
same,Control of PTH-caused reduction of calcium level in the metaphysis tissue (in words),[3]; [6],significantly controlled
same,Effect on calcium level in the diaphysis tissue after oral administration (in words),[4]; [7],significantly increased
same,Bone calcium level,[4]; [8],232.8 ± 3.00* mg/g dry weight
same,Bone calcium level,[4]; [9],248.3 ± 5.10* mg/g dry weight
same,Bone calcium level,[4]; [10],247.5 ± 4.20* mg/g dry weight
same,Effect on calcium level in the metaphysis tissue after oral administration (in words),[5]; [7],significantly increased
same,Bone calcium level,[5]; [8],201.5 ± 5.60* mg/g dry weight
same,Bone calcium level,[5]; [9],200.3 ± 3.90* mg/g dry weight
same,Bone calcium level,[5]; [10],205.9 ± 4.10* mg/g dry weight
